US9333178B2, “Essential oil microparticles and uses thereof for preventing enteric diseases” (Universidade Estadual de Campinas—UNICAMP, priority 2012, dated 2016)
Converted amounts (≈) assume the structure as drawn.

Tests used:
U251 (glioma, CNS) = test: In vitro cytotoxicity, SRB assay; type: cell-based, human
Source text: Based on the results, growth rate graphics from the sample concentration for each of the tested strain were generated. Three effective concentrations called GI50 (growth inhibition, the concentration required to disrupt 50% cell growth), TGI (total growth inhibition, the concentration required for 0% of cell growth) and LC50 (lethal concentration, concentration required for 50% cell death) could be calculated by nonlinear regression, sigmoidal, using 8.0 Origin software.
In this model, one way to infer the growth rate is by spectrophotometric reading of the absorbance of cellular proteins stained with sulforhodamine B (SRB), an anionic dye staining bright pink. This dye can bind to protein terminations of basic amino acids in living cells fixed with Trichloroacetic acid (TCA), thus being an independent assay of cell metabolism and allowing a sensitive measurement of protein linearly with the number of cells in culture. […]

786-0 (kidney) = test: In vitro cytotoxicity, SRB assay; type: cell-based, human
Procedure: (§1) The in vitro cytotoxicity of essential oils (present invention) were evaluated against two normal cell lines (VERO—African green monkey kidney epithelial cells and HaCat—immortal human keratinocytes) and against a panel of human tumor cells.
(§2) Based on the results, growth rate graphics from the sample concentration for each of the tested strain were generated.
(§3) The test results obtained are shown in FIG. 1 (present invention) and table 2. In this model, one way to infer the growth rate is by spectrophotometric reading of the absorbance of cellular proteins stained with sulforhodamine B (SRB), an anionic dye staining bright pink. This dye can bind to protein terminations of basic amino acids in living cells fixed with Trichloroacetic acid (TCA), thus being an independent assay of cell metabolism and allowing a sensitive measurement of protein linearly with the number of cells in culture.
(§4) This test allows us to evaluate the antitumor activity through exposure of human tumor cells in exponential growth phase at different concentrations of the sample and whether that exposure led to an interruption in the growth rate without cell death ([…]) or caused the death cell (cytocidal activity). To measure the activity, an effective concentration called TGI (total growth inhibition, concentration required for 0% cell growth occurs) (Shoemaker, 2006) was calculated.
(§5) Chemotherapy doxorubicin was used as positive control. In addition to a standard of comparison, the main purpose of using this control was to verify that all employed cell lines kept the profile of response to chemotherapy. This is because with successive passages necessary for the maintenance of cell culture, there is the possibility of changing the lineage in culture, and this mutation could be detected by the change in response against doxorubicin. Furthermore, in order to minimize the occurrence of mutations, the cell lines are perpetuated only by up to 20 passages, after which they are replaced by new cells of the same strain that were maintained frozen.

[1] = system: HaCat (keratinocyte, immortalized normal cell); test: In vitro cytotoxicity, SRB assay; type: cell-based, human; settings: normal cell line
Procedure: as §1, §2, §3, §4, §5

MCF-7 (breast) = test: In vitro cytotoxicity, SRB assay; type: cell-based, human
Procedure: as §1, §2, §3, §4, §5

[2] = system: NCI-ADR/RES (ovary, with multidrug resistant phenotype); test: In vitro cytotoxicity, SRB assay; type: cell-based, human
Procedure: as §1, §2, §3, §4, §5

[3] = system: NCI-H460 (lung, non-small cells); test: In vitro cytotoxicity, SRB assay; type: cell-based, human
Procedure: as §1, §2, §3, §4, §5

[4] = system: panel of human tumor cells; test: In vitro cytotoxicity, SRB assay, mean over tumor lines; type: cell-based; settings: arithmetic mean of the TGI values for tumor lines
Procedure: as §1, §2
as §3, with “culture. […]” for “culture.”
Chemotherapy doxorubicin was used as positive control. […] This is because with successive passages necessary for the maintenance of cell culture, there is the possibility of changing the lineage in culture, and this mutation could be detected by the change in response against doxorubicin. […]

Question: Which “TGI (Total Growth Inhibition)” value (U251 (glioma, CNS)) does the source give for `COc1cccc2c1C(=O)c1c(O)c3c(c(O)c1C2=O)C[C@@](O)(C(=O)CO)C[C@@H]3O[C@H]1C[C@H](N)[C@H](O)[C@H](C)O1` [Doxorubicin] here?
Answer: 1.24 mg/L (≈ 2.28 µM)

Question: What about the “TGI (Total Growth Inhibition)” value (786-0 (kidney)) of the same compound?
Answer: >25 mg/L

Question: What about the “TGI (Total Growth Inhibition)” value [1] of the same compound?
Answer: >25 mg/L

Question: And the “TGI (Total Growth Inhibition)” value (MCF-7 (breast))?
Answer: >25 mg/L

Question: And the “TGI (Total Growth Inhibition)” value [2]?
Answer: >25 mg/L

Question: What about the “TGI (Total Growth Inhibition)” value [3] of the same compound?
Answer: >25 mg/L

Question: And the “TGI Average” value [4]?
Answer: >25 mg/L
